The results in this text go back to patent US5214070A, “Diaryl ether cycloalkanes” (Imperial Chemical Industries PLC, priority 1989, dated 1993).

pIC50: −log10 of the molar value.

The test system of this assay is 5-LO. Description: Test b): A23187-challenged heparinised human blood, LTB4 radioimmunoassay. It is filed as cell-based. The following applies: A23187 challenge. The procedure:
b) An in vitro assay system involving incubating a test compound with heparinised human blood, prior to challenge with the calcium ionophore A23187 and then indirectly measuring the inhibitory effects on 5-LO by assaying the amount of LTB4 using the specific radioimmunoassay described by Carey and Forder (F. Carey and R. A. Forder, Brit. J. Pharmacol. 1985, 84, 34P) which involves the use of a protein-LTB4 conjugate produced using the procedure of Young et alia (Prostaglandins, 1983, 26(4), 605-613). The effects of a test compound on the enzyme cyclooxygenase (which is involved in the alternative metabolic pathway for arachidonic acid and gives rise to prostaglandins, thromboxanes and related metabolites) may be measured at the same time using the specific radioimmunoassay for thromboxane B2 (TxB2) described by Carey and Forder (see above). This test provides an indication of the effects of a test compound against 5-LO and also cyclooxygenase in the presence of blood cells and proteins. It permits the selectivity of the inhibitory effect on 5-LO or cyclooxygenase to be assessed.

For `CO[C@H]1CCC[C@@]1(OC)c1cc(F)cc(Sc2ccc3ccccc3c2)c1` (racemic) [(1RS,2SR)-1-[5-fluoro-3-(naphth-2-ylthio)phenyl]-1,2-dimethoxycyclopentane], the pIC50 was roughly 6.70.

Turning to `C=CCO[C@@]1(c2cc(F)cc(Sc3ccc4ccccc4c3)c2)CCC[C@@H]1OC` (racemic) [(1RS,2SR)-1-allyloxy-1-[5-fluoro-3-(naphth-2-ylthio)phenyl]-2-methoxycyclopentane], the pIC50 is roughly 6.70.
